± gives the expanded uncertainty stated by the source.
Assay: mn = molality of the nth substance listed, in mol/kg
Conditions: 101 kPa, Liquid; for viscosity: Capillary tube (Ostwald / Ubbelohde) method; for mass density: Vibrating tube method

Compound NC(=O)c1ccccc1O [2-hydroxybenzamide] + CO has a viscosity (293.15 K, m1 = 0.0095) of 0.597 ± 0.0071 mPa·s, a viscosity (293.15 K, m1 = 0.0126) of 0.5976 ± 0.0071 mPa·s and a viscosity (293.15 K, m1 = 0.0158) of 0.5981 ± 0.0071 mPa·s. The viscosity (293.15 K, m1 = 0.019) was 0.5987 ± 0.0071 mPa·s, the viscosity (293.15 K, m1 = 0.0221) was 0.5993 ± 0.0071 mPa·s and the viscosity (293.15 K, m1 = 0.0253) was 0.5997 ± 0.0071 mPa·s. The viscosity (293.15 K, m1 = 0.0317) was 0.6008 ± 0.0071 mPa·s, the mass density (293.15 K, m1 = 0.0095) was 792.015 ± 0.14 kg/m3 and the mass density (293.15 K, m1 = 0.0126) was 792.215 ± 0.13 kg/m3. It also gave a mass density (293.15 K, m1 = 0.0158) of 792.352 ± 0.13 kg/m3, a mass density (293.15 K, m1 = 0.019) of 792.555 ± 0.13 kg/m3 and a mass density (293.15 K, m1 = 0.0221) of 792.688 ± 0.12 kg/m3. It also gave a mass density (293.15 K, m1 = 0.0253) of 792.801 ± 0.12 kg/m3, a mass density (293.15 K, m1 = 0.0317) of 792.965 ± 0.12 kg/m3 and a viscosity (298.15 K, m1 = 0.0095) of 0.5471 ± 0.0069 mPa·s. It also gave a viscosity (298.15 K, m1 = 0.0126) of 0.5475 ± 0.0069 mPa·s, a viscosity (298.15 K, m1 = 0.0158) of 0.548 ± 0.0069 mPa·s and a viscosity (298.15 K, m1 = 0.019) of 0.5485 ± 0.0069 mPa·s. It also gave a viscosity (298.15 K, m1 = 0.0222) of 0.549 ± 0.0069 mPa·s, a viscosity (298.15 K, m1 = 0.0253) of 0.5495 ± 0.0069 mPa·s and a viscosity (298.15 K, m1 = 0.0317) of 0.5503 ± 0.0069 mPa·s. For the same compound, the mass density (298.15 K, m1 = 0.0095) was 787.285 ± 0.14 kg/m3, the mass density (298.15 K, m1 = 0.0126) was 787.479 ± 0.13 kg/m3 and the mass density (298.15 K, m1 = 0.0158) was 787.615 ± 0.13 kg/m3. It also gave a mass density (298.15 K, m1 = 0.019) of 787.819 ± 0.13 kg/m3, a mass density (298.15 K, m1 = 0.0222) of 787.921 ± 0.12 kg/m3 and a mass density (298.15 K, m1 = 0.0253) of 788.019 ± 0.12 kg/m3. The mass density (298.15 K, m1 = 0.0317) was 788.218 ± 0.12 kg/m3, the viscosity (303.15 K, m1 = 0.0095) was 0.5003 ± 0.0068 mPa·s and the viscosity (303.15 K, m1 = 0.0127) was 0.5005 ± 0.0068 mPa·s. It also gave a viscosity (303.15 K, m1 = 0.0159) of 0.5007 ± 0.0068 mPa·s, a viscosity (303.15 K, m1 = 0.0191) of 0.5009 ± 0.0068 mPa·s and a viscosity (303.15 K, m1 = 0.0223) of 0.5012 ± 0.0068 mPa·s. The viscosity (303.15 K, m1 = 0.0255) was 0.5015 ± 0.0068 mPa·s, the viscosity (303.15 K, m1 = 0.0319) was 0.5019 ± 0.0068 mPa·s and the mass density (303.15 K, m1 = 0.0095) was 782.541 ± 0.14 kg/m3. It also gave a mass density (303.15 K, m1 = 0.0127) of 782.725 ± 0.13 kg/m3, a mass density (303.15 K, m1 = 0.0159) of 782.859 ± 0.13 kg/m3 and a mass density (303.15 K, m1 = 0.0191) of 783.029 ± 0.13 kg/m3. For the same compound, the mass density (303.15 K, m1 = 0.0223) was 783.149 ± 0.13 kg/m3, the mass density (303.15 K, m1 = 0.0255) was 783.261 ± 0.13 kg/m3 and the mass density (303.15 K, m1 = 0.0319) was 783.449 ± 0.12 kg/m3. The viscosity (308.15 K, m1 = 0.0096) was 0.4852 ± 0.0068 mPa·s, the viscosity (308.15 K, m1 = 0.0128) was 0.4853 ± 0.03 mPa·s and the viscosity (308.15 K, m1 = 0.016) was 0.4855 ± 0.03 mPa·s. It also gave a viscosity (308.15 K, m1 = 0.0192) of 0.4857 ± 0.03 mPa·s, a viscosity (308.15 K, m1 = 0.0224) of 0.4859 ± 0.03 mPa·s and a viscosity (308.15 K, m1 = 0.0256) of 0.4862 ± 0.03 mPa·s. The viscosity (308.15 K, m1 = 0.0321) was 0.4866 ± 0.03 mPa·s, the mass density (308.15 K, m1 = 0.0096) was 777.775 ± 0.14 kg/m3 and the mass density (308.15 K, m1 = 0.0128) was 777.951 ± 0.13 kg/m3. The mass density (308.15 K, m1 = 0.016) was 778.085 ± 0.13 kg/m3, the mass density (308.15 K, m1 = 0.0192) was 778.255 ± 0.13 kg/m3 and the mass density (308.15 K, m1 = 0.0224) was 778.368 ± 0.13 kg/m3. For the same compound, the mass density (308.15 K, m1 = 0.0256) was 778.495 ± 0.13 kg/m3, the mass density (308.15 K, m1 = 0.0321) was 778.659 ± 0.13 kg/m3 and the viscosity (310.15 K, m1 = 0.0097) was 0.4602 ± 0.0067 mPa·s. It also gave a viscosity (310.15 K, m1 = 0.0129) of 0.4603 ± 0.0067 mPa·s, a viscosity (310.15 K, m1 = 0.0161) of 0.4604 ± 0.0067 mPa·s and a viscosity (310.15 K, m1 = 0.0193) of 0.4607 ± 0.0067 mPa·s. It also gave a viscosity (310.15 K, m1 = 0.0218) of 0.4608 ± 0.0067 mPa·s, a viscosity (310.15 K, m1 = 0.0258) of 0.4609 ± 0.0067 mPa·s and a viscosity (310.15 K, m1 = 0.0323) of 0.4612 ± 0.0067 mPa·s. For the same compound, the mass density (310.15 K, m1 = 0.0097) was 775.881 ± 0.21 kg/m3, the mass density (310.15 K, m1 = 0.0129) was 776.055 ± 0.13 kg/m3 and the mass density (310.15 K, m1 = 0.0161) was 776.195 ± 0.13 kg/m3. It also gave a mass density (310.15 K, m1 = 0.0193) of 776.355 ± 0.14 kg/m3, a mass density (310.15 K, m1 = 0.0218) of 776.449 ± 0.13 kg/m3 and a mass density (310.15 K, m1 = 0.0258) of 776.585 ± 0.12 kg/m3. The mass density (310.15 K, m1 = 0.0323) was 776.765 ± 0.18 kg/m3, the viscosity (313.15 K, m1 = 0.0097) was 0.4502 ± 0.0067 mPa·s and the viscosity (313.15 K, m1 = 0.013) was 0.4503 ± 0.0067 mPa·s. The viscosity (313.15 K, m1 = 0.0162) was 0.4504 ± 0.0067 mPa·s, the viscosity (313.15 K, m1 = 0.0194) was 0.4506 ± 0.0067 mPa·s and the viscosity (313.15 K, m1 = 0.0227) was 0.4508 ± 0.0067 mPa·s. For the same compound, the viscosity (313.15 K, m1 = 0.0259) was 0.4509 ± 0.0067 mPa·s, the viscosity (313.15 K, m1 = 0.0325) was 0.4511 ± 0.0067 mPa·s and the mass density (313.15 K, m1 = 0.0097) was 775.744 ± 5 kg/m3. It also gave a mass density (313.15 K, m1 = 0.013) of 775.898 ± 5 kg/m3, a mass density (313.15 K, m1 = 0.0162) of 776.045 ± 5 kg/m3 and a mass density (313.15 K, m1 = 0.0194) of 776.165 ± 5 kg/m3. It also gave a mass density (313.15 K, m1 = 0.0227) of 776.285 ± 5 kg/m3, a mass density (313.15 K, m1 = 0.0259) of 776.375 ± 5 kg/m3 and a mass density (313.15 K, m1 = 0.0325) of 776.558 ± 5 kg/m3.

Reference: the NIST ThermoML archive (doi:10.1021/je800616p)
